Test results as given in patent publication US20240400546A1, “COMPOUNDS AND USES THEREOF” (JANSSEN PHARMACEUTICA NV, priority 2016, published 2024).
pEC50, pIC50: −log10 of the molar value.

Key:
Type in all cases: cell-based
SCD5 = molecular target: T1, SCD5 (Homo sapiens, UniProt Q86SK9); assay: Growth inhibition of humanized yeast expressing SCD5 as sole desaturase; conditions: for SCD5 % Max Inhibition / pIC50: humanized yeast expressing SCD5
T1 construct: host or cells: S. cerevisiae ole1Δ strain, plasmid pRS316 with TDH3 promoter and CYC1 terminator
T1 sequence (Q86SK9 1-330): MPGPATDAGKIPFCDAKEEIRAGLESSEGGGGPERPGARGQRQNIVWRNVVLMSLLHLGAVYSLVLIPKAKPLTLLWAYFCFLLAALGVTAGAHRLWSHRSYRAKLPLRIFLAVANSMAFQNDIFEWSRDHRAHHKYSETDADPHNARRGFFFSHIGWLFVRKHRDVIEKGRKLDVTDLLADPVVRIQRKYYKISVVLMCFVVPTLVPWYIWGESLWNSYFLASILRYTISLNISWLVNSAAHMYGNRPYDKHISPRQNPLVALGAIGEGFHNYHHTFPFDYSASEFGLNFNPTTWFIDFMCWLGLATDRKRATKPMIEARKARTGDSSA
Procedure: (§1) Strain ole1Δ (yeast ole1 deletion mutant) was constructed by deleting OLE1 with NAT-MX6 in BY4741, amplifying the deletion cassette from the genomic DNA of the resulting strain with primers flanking the ORF by 1000 bp upstream and downstream, transforming the resulting deletion cassette into W303 pdr1Δ pdr3Δ, and plating transformants on YPD media containing G418 (200 μg/mL) and nourseothricin (100 μg/mL) with 0.01% TWEEN®-20 and 0.5 mM oleic and palmitoleic acids.
(§2) The coding sequence of yeast OLE1 was also cloned into this plasmid). These clones were then transformed into the ole1Δ strain and plated on CSM-Ura media (CSM lacking uracil) with 2% glucose (w/v) and independent colonies were isolated and amplified.
(§3) All compound profiling experiments were performed using the same basic protocol. Different genetic backgrounds (e.g., gene deletions) or conditions (e.g., addition of oleic and palmitoleic acid) were replaced as indicated below.
(§4) Yeast were cultured using standard techniques in complete synthetic media (CSM) and yeast nitrogen base supplemented with 2% (w/v) carbon source (glucose, raffinose, or galactose) to regulate the expression of the toxic disease protein. An initial starter culture was inoculated in 3 mL CSM-Glucose media and incubated overnight in a 30° C. shaker incubator (225 rpm). Saturated morning cultures were then diluted 1:20 in fresh CSM-Raffinose media and grown for 6 h to an OD600 (optical density) of ˜0.4-0.8 at 30° C. with shaking.
(§5) Compound administration was performed in two separate steps. First, 15 μL of CSM-Galactose (induces expression of toxic protein) was dispensed into clear 384 well assay plates using a MULTIDROP™ Combi reagent dispenser. […] The cultures described above were then diluted to a 2× concentration (0.03 and 0.08 for alpha-synuclein and ApoE, final OD600 of 0.015 and 0.04) in CSM-Galactose. For wild-type and Ole1/SCD1/SCD5 plasmid-containing strains, the 2× cell density was 0.02. […] For 96-well assays (FIGS. 1A and 1B), compound dilutions in DMSO were generated in 96 well plates and 1 μL was manually pipetted into 96 well clear bottom assay plates.
(§6) For experiments using a plasmid-borne copy of Ole1, SCD1, or SCD5 (FIGS. 3B, 6, and 7), media lacking uracil (SX-Ura, where X is glucose, raffinose, or galactose), was used for all steps of the compound profiling protocol to ensure its maintenance throughout the assay.
(§7) After yeast delivery, assay plates were incubated under humidified conditions at 30° C. for 24 to 40 h. ApoE4 rescue experiments were stopped at 24 h, aSyn experiments at 40 h, Ole1 at 24 h, and SCD1/SCD5 at 40 h. The growth of yeast was monitored by reading the OD600 of each well using a microplate reader (Perkin Elmer EnVision™).

SCD1 = molecular target: T2, SCD1 (Homo sapiens, UniProt O00767); assay: Growth inhibition of humanized yeast expressing SCD1 as sole desaturase; conditions: for SCD1 % Max Inhibition / pIC50: humanized yeast expressing SCD1
T2 construct: host or cells: S. cerevisiae ole1Δ strain, plasmid pRS316 with TDH3 promoter and CYC1 terminator
T2 sequence (O00767 1-359): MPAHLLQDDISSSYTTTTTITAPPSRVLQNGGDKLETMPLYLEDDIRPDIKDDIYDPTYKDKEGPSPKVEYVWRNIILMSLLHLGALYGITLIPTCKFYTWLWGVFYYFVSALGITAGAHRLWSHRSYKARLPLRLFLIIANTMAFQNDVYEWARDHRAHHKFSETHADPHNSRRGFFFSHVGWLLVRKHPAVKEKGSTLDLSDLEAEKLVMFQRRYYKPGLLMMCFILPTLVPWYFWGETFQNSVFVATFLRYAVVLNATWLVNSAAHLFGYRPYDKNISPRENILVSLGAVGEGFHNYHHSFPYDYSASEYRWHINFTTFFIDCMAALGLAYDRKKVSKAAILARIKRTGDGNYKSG
Outline: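 ole1Δ yeast (W303 pdr1Δ pdr3Δ background) carried plasmid-borne human SCD1, human SCD5 or yeast Ole1 as the sole desaturase and were grown in uracil-lacking galactose medium in 384-well plates. Starting 2× density was OD600 0.02, with incubation at 30 °C. Growth was read as OD600 at 24 h for Ole1 and at 40 h for SCD1 and SCD5.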

Ole1 = molecular target: T3, Ole1 (Saccharomyces cerevisiae, UniProt P21147); assay: Growth inhibition of yeast expressing Ole1 as sole desaturase
T3 construct: expressed in transfected cells; host or cells: S. cerevisiae ole1Δ strain (W303 pdr1Δ pdr3Δ background), plasmid pRS316 with TDH3 promoter and CYC1 terminator
T3 sequence (P21147 1-510): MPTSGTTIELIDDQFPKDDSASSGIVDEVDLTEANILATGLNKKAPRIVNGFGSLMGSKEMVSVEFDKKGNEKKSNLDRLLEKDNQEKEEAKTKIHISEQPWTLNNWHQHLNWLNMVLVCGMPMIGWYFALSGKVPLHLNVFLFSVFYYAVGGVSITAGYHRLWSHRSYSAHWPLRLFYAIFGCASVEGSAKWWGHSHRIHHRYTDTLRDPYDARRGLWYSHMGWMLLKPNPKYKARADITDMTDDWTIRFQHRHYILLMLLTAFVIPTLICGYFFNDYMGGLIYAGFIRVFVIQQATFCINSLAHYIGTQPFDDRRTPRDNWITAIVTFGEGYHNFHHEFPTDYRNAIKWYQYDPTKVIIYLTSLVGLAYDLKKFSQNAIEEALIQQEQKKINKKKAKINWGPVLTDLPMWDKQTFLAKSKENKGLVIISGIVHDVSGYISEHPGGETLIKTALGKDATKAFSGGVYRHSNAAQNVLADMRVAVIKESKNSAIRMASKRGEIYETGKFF
Procedure: as §1, §2, §3, §4, §5, §6, §7

[1] = test system: yeast strains expressing the human protein ApoE4; assay: Yeast rescue assay, ApoE4 toxicity (OD600 growth); conditions: 24 h
Procedure: (§8) In a standard yeast assay, a single-use aliquot of cells was thawed on ice and diluted into CSM/glucose (5 mL). Cultures were grown for 8 hours at 30° C. This pre-growth enables the yeast to exit the thaw and begin to grow without expressing aSyn or ApoE4. After 8 hours, cell density (OD600) was determined and cultures diluted to an OD600 of 0.01 in CSM/raffinose for an overnight culture phase at 30° C. During this period, the active glucose repression of the GAL1 promoter was relieved; however, expression of the α-Syn/ApoE4 genes were not yet induced. After ˜16 hours of growth, cultures attain an OD600 of 0.4-0.8 and were ready to apply to assay plates containing compound.
Compound profiling assays were executed in clear-bottom 384 well plates. First, compound plates were thawed at room temperature for 45′, centrifuged at 1,000×g for 1 minute, and the foil removed. Clear 384 well assay plates were then filled with 15 μL of CSM/galactose. Both compound and media-containing plates were arranged on the Janus workstation and a compound pin tool (384×100 nL slotted pins) used to deliver 100 nL of compounds to each well according to the well map of the compound plate. Based on the previous serial dilution, the final concentration of compound ranged from […] to 12.5 nM. The pin tool was washed iteratively with both 50% DMSO and 100% ethanol between each assay plate. After delivering compound to each assay plate, the overnight CSM/raffinose aSyn or ApoE4 cultures were added at a 2× cell density (0.04 for aSyn and 0.08 for ApoE4) in CSM/galactose to achieve a final assay OD600 of 0.02 and 0.04 for aSyn and ApoE, respectively. […] The OD600 of each assay plate was then read with a microplate reader (e.g., Perkin Elmer Envision).
The efficacy and potency of compounds were calculated according to the following. […] The efficacy (percent above DMSO, herein referred to as “Emax”) was calculated according to the equation: (Experimental well−DMSO control well)/(DMSO control well)*100. […]

[2] = test system: yeast strains expressing the human protein α-synuclein; assay: Yeast rescue assay, α-synuclein toxicity (OD600 growth); conditions: 40 h; for α-Syn Emax: percent above DMSO
Procedure: as §8
Compound profiling assays were executed in clear-bottom 384 well plates. First, compound plates were thawed at room temperature for 45′, centrifuged at 1,000×g for 1 minute, and the foil removed. Clear 384 well assay plates were then filled with 15 μL of CSM/galactose. Both compound and media-containing plates were arranged on the Janus workstation and a compound pin tool (384×100 nL slotted pins) used to deliver 100 nL of compounds to each well according to the well map of the compound plate. Based on the previous serial dilution, the final concentration of compound ranged from […] to 12.5 nM. The pin tool was washed iteratively with both 50% DMSO and 100% ethanol between each assay plate. After delivering compound to each assay plate, the overnight CSM/raffinose aSyn or ApoE4 cultures were added at a 2× cell density (0.04 for aSyn and 0.08 for ApoE4) in CSM/galactose to achieve a final assay OD600 of 0.02 and 0.04 for aSyn and ApoE, respectively. The cultures (15 μL per well) were then dispensed to the compound-containing 384 well assay plates using an automated plate filler. Plates were incubated in a humidified 30° C. incubator for 40 or 24 hours for aSyn and ApoE4, respectively. The OD600 of each assay plate was then read with a microplate reader (e.g., Perkin Elmer Envision).
The efficacy and potency of compounds were calculated according to the following. Raw data (OD600 values) were first background corrected to account for OD600 contributed by the plate and media itself. The efficacy (percent above DMSO, herein referred to as “Emax”) was calculated according to the equation: (Experimental well−DMSO control well)/(DMSO control well)*100. […] Normalized dose-response data was fit with a logistic regression curve using Spotfire (TIBCO), or similar curve-fitting software package. EC50 values were then reported along with EMax to provide both efficacy and potency measures for each analog and enable further compound design.

[3] = yeast expressing Ole1 as sole desaturase

Structure (SMILES) | SCD5 % Max Inhibition (SCD5) [%] | SCD1 % Max Inhibition (SCD1) [%] | OLE1 % Max Inhibition (Ole1; [3]) [%] | other results
COc1ccc(-c2noc(C3CCN(C(=O)[C@H]4CC(=O)N(c5ccc(C)c(C)c5)C4)CC3)n2)cc1OC (single isomer, unassigned) [Compound 67] | 4.32 | 54.45 | 85.79 | –
COc1cccc(-c2noc(C3CCN(C(=O)[C@@H]4CC(=O)N(c5ccc(C)c(C)c5)C4)CC3)n2)c1 (single isomer, unassigned) [Compound 69] | 8.06 | 60.59 | 105.31 | –
Cc1nnc(-c2ccc(N3CCC(Oc4cc(F)ccc4Cl)CC3)nn2)o1 [CAY10566, reference compound] | – | – | – | half-maximal inhibitory concentration (IC50), SCD5 humanized strain (SCD5; FIG. 6): low nanomolar; half-maximal inhibitory concentration (IC50), SCD1 humanized strain (SCD1; FIG. 6): low nanomolar; Sensitivity of yeast expressing OLE1 to known SCD1/SCD5 inhibitors (Ole1; FIG. 6): resistant
CCOc1ccc(-c2noc(C3CCN(C(=O)N4CCCCC4)CC3)n2)cc1OC [Compound 53] | – | – | – | ApoE4 Emax ([1]; percent above DMSO): 296%; α-Syn Emax [2]: 81%
Cc1ccc(-c2noc(C3CCN(C(=O)C4CC(=O)N(c5ccc(C)c(C)c5)C4)CC3)n2)cc1 (centres unmarked) [Compound 61] | 13.18 | 2.37 | 71.50 | pEC50 ([1]; Homo sapiens): 4.71; Emax ([1]; Homo sapiens, percent above DMSO): 465%; pIC50 (Ole1; [3]): 4.39; pEC50 ([2]; read-out: α-Syn EC50): 4.71; α-Syn Emax [2]: 229%
COc1ccc(-c2noc(C3CCN(C(=O)[C@H]4CC(=O)N(c5ccccc5)C4)CC3)n2)cc1OC [Compound 65] | 73.43 | 83.43 | 4.02 | pIC50 (SCD5): < 4.35; pIC50 (SCD1): < 4.35
COc1ccc(-c2noc(C3CCN(C(=O)[C@@H]4CC(=O)N(c5ccccc5)C4)CC3)n2)cc1OC [Compound 66] | 19.53 | 94.04 | 99.71 | pIC50 (SCD5): < 4.35; pIC50 (SCD1): < 4.35
